Reference: patent publication US12686676B2, “Compound, endothelin-A receptor antagonist, and pharmaceutical composition” (Alchemedicine, Inc., priority 2021, dated 2026)

Tests used:
[1] = biological target: T1, human endothelin B receptor (Homo sapiens, UniProt P24530); experiment: Endothelin B receptor inhibitory effect (aequorin light emission, endothelin at EC80); format: cell-based; conditions: for IC50: CHO-K1-mt aequorin cells expressing human endothelin B receptor, endothelin at EC80, read-out: ETB receptor inhibitory effect
T1 construct: expressed in transfected cells; host or cells: CHO-K1-mt aequorin cells
T1 sequence (P24530 27-442): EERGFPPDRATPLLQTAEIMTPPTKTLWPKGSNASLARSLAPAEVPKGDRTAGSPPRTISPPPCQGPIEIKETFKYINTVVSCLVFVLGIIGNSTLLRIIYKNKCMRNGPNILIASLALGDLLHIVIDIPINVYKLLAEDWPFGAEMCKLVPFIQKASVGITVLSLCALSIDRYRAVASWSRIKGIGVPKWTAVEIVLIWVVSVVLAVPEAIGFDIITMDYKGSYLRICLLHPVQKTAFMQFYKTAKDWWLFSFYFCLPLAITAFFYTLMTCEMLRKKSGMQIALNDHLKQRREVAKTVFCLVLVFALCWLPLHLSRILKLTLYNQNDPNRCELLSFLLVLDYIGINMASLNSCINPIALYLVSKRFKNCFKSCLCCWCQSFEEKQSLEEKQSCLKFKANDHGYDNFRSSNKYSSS
Description: The inhibitory effect on an endothelin B receptor was studied by the following method.
(§1) CHO-K1-mt aequorin cells forced to express a human endothelin B receptor (Accession Number NP_000106.1) were cultured in an antibiotic-free medium for 18 hours, then treated with PBS-EDTA (5 mM EDTA), centrifuged (2 min, 405×g, room temperature), and then suspended in an assay buffer (DMEM/HAM's F12 with HEPES+0.1% BSA protease free).
(§2) 1×10^6 cells/mL of the cells were incubated at room temperature for 4 hours in the presence of coelenterazine h (Molecular Probes, Inc.) (final concentration: 5 µM). Agonistic reaction based on endothelin was confirmed to determine an endothelin concentration corresponding to EC80.
(§3) Subsequently, 50 µL (10000 cells/well) of the cell suspension treated with coelenterazine h and 50 µL of an assay buffer containing a test substance (final concentration: 0.5% in DMSO) were added to each well of a 96-well plate. 15 minutes later, endothelin was added such that its final concentration was an EC80 concentration. Receptor activity was measured as the quantity of light emission in FDSS6000 (Hamamatsu Photonics K.K.).

[2] = Metabolic stability in mouse liver microsome; format: in vitro ADME; conditions: after 30 minutes with NADPH; also: tested at 0.99 µM
Description: 971.5 μL of the potassium phosphate buffer solution and 27.5 μL of the human liver microsome were placed in a propylene tube and suspended. 1 μL of the test compound was added thereto, and a 180 μL aliquot of this mixture was transferred to a fresh tube. The mixture was preincubated at 37° C. for 5 minutes. Then, 20 μL of the NADPH solution (for an incubation time of 30 minutes) or 20 μL of the potassium phosphate buffer solution (for an incubation time of 0 minutes) was added thereto. After incubation, the reaction was terminated by the addition of 200 μL of the quenching solution. Subsequently, the tube was centrifuged at 3220×g for 20 minutes, and the concentration of an unchanged form of the test compound in […] of a supernatant was measured by LC-MS/MS. On the basis of the obtained peak area of the unchanged form, the residual rate (%) of the unchanged form was calculated using the rate of 0 minutes of incubation time as 100%.
The metabolic stability in a mouse liver microsome was evaluated by the same method as above except that the mouse liver microsome was used instead of the human liver microsome.

[3] = PAMPA membrane permeability test; format: in vitro ADME; conditions: 10 μM, room temperature, 16 hours
Description: The membrane permeability test was carried out using PAMPA. The specific method is as follows. • (1) Lecithin was added at 2% (w/v) into a dodecane solution and completely dissolved. • (2) 5 μL of the lecithin/dodecane solution was added to each well of a donor plate. In this respect, a pipette tip was positioned in no contact with the membrane. • (3) Immediately thereafter, 150 μL of a donor solution (5% DMSO-PBS) containing an evaluation compound (10 μM) was added to each well of the donor plate, and 300 μL of an aqueous buffer was added to each well of a PTFE acceptor plate. • (4) The donor plate filled with the donor solution containing the evaluation compound was slowly placed on the acceptor plate, and the undersurface of the membrane was confirmed to be in contact with the buffer in all the wells. • (5) After covering, the apparatus was incubated at room temperature for 16 hours. • (6) After incubation, 100 μL of the solution was recovered from each of the upper surface and the undersurface of the membrane in the acceptor plate, and acetonitrile containing an equal amount of an internal standard was added thereto. • (7) The concentration of the evaluation compound was measured to calculate a permeation rate.
A sample having a membrane permeation rate value of 1×10^−8 cm/sec or lower was given “C”; a sample having a value in the range of higher than 1×10^−8 cm/sec and 10×10^−8 cm/sec or lower was given “B”; and a sample having a value of higher than 10×10^−8 cm/sec was given “A”.

[4] = biological target: T2, human endothelin A receptor (Homo sapiens, UniProt P25101); experiment: Endothelin A receptor inhibitory effect (aequorin light emission, endothelin at EC80); format: cell-based; conditions: for IC50: CHO-K1-mt aequorin cells expressing human endothelin A receptor, endothelin at EC80, read-out: ETA receptor inhibitory effect; for ETA selectivity (ETB/ETA): ETB IC50 value/ETA IC50 value
T2 construct: expressed in transfected cells; host or cells: CHO-K1-mt aequorin cells
T2 sequence (P25101 21-427): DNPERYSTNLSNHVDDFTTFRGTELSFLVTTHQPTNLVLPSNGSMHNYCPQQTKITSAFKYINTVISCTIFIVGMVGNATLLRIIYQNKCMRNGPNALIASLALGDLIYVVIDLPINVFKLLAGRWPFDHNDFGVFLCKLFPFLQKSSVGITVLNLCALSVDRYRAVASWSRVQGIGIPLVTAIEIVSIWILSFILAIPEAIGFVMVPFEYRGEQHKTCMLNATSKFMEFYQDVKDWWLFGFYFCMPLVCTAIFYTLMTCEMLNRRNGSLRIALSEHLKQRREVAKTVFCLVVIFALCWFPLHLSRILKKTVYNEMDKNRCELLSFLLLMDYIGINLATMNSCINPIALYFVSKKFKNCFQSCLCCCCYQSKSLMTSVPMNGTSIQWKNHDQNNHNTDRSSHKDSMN
Description: The inhibitory effect on an endothelin A receptor was studied by the following method.
as §1, with “endothelin A” for “endothelin B”, “Number NP_001948.1)” for “Number NP_000106.1)”
as §2
as §3, with “K.K.). IC50 values were calculated using XLfit (ID Business Solutions Ltd. (IDBS)).” for “K.K.).”

Cc1cc2c(cc1C#Cc1ncccc1S(=O)(=O)Nc1noc(C)c1C)C(=O)OC2 [Example 4, N-(4,5-Dimethylisoxazol-3-yl)-2-((6-methyl-3-oxo-1,3-dihydroisobenzofuran-5-yl)ethynyl)pyridine-3-sulfonamide]
IC50 [1]: > 5000 nM | Metabolic stability (mouse), residual rate of the unchanged form [2]: 91% | Membrane permeation rate [3]: C (membrane permeation rate value of 1×10^−8 cm/sec or lower) | IC50 [4]: ≤ 1 nM | ETA selectivity (ETB/ETA) [4]: ++ (ETB IC50 value/ETA IC50 value of higher than 5000)

Cc1onc(NS(=O)(=O)c2cccnc2C#Cc2cc3c(cc2Cl)COC3)c1C [Example 6, 2-((6-Chloro-1,3-dihydroisobenzofuran-5-yl)ethynyl)-N-(4,5-dimethylisoxazol-3-yl)pyridine-3-sulfonamide]
IC50 [1]: > 5000 nM | Metabolic stability (mouse), residual rate of the unchanged form [2]: 54% | Membrane permeation rate [3]: A (value of higher than 10×10^−8 cm/sec) | IC50 [4]: 1 to 10 nM

Cc1cc2c(cc1C#Cc1ncccc1S(=O)(=O)Nc1onc(C)c1C)C(C)(C)OC2 [Example 8, N-(3,4-Dimethylisoxazol-5-yl)-2-((3,3,6-trimethyl-1,3-dihydroisobenzofuran-5-yl)ethynyl)pyridine-3-sulfonamide]
IC50 [1]: > 5000 nM | Metabolic stability (mouse), residual rate of the unchanged form [2]: 40% | Membrane permeation rate [3]: B (value in the range of higher than 1×10^−8 cm/sec and 10×10^−8 cm/sec or lower) | IC50 [4]: ≤ 1 nM | ETA selectivity (ETB/ETA) [4]: ++ (ETB IC50 value/ETA IC50 value of higher than 5000)

COc1nc(C)cnc1NS(=O)(=O)c1cccnc1C#Cc1cc2c(cc1C)COC2(C)C [Example 10, N-(3-Methoxy-5-methylpyrazin-2-yl)-2-((3,3,6-trimethyl-1,3-dihydroisobenzofuran-5-yl)ethynyl)pyridine-3-sulfonamide]
IC50 [1]: > 5000 nM | Metabolic stability (mouse), residual rate of the unchanged form [2]: 68% | Membrane permeation rate [3]: A (value of higher than 10×10^−8 cm/sec) | IC50 [4]: ≤ 1 nM | ETA selectivity (ETB/ETA) [4]: ++ (ETB IC50 value/ETA IC50 value of higher than 5000)

Cc1cc2c(cc1C#Cc1ncccc1S(=O)(=O)Nc1onc(C)c1Cl)C(C)(C)OC2 [Example 9, N-(4-Chloro-3-methylisoxazol-5-yl)-2-((3,3,6-trimethyl-1,3-dihydroisobenzofuran-5-yl)ethynyl)pyridine-3-sulfonamide]
IC50 [1]: > 5000 nM | Metabolic stability (mouse), residual rate of the unchanged form [2]: 5% | Membrane permeation rate [3]: A (value of higher than 10×10^−8 cm/sec) | IC50 [4]: ≤ 1 nM | ETA selectivity (ETB/ETA) [4]: ++ (ETB IC50 value/ETA IC50 value of higher than 5000)

Cc1cc2c(cc1C#Cc1ncccc1S(=O)(=O)Nc1noc(C)c1C)COC2 [Example 3, N-(4,5-Dimethylisoxazol-3-yl)-2-((6-methyl-1,3-dihydroisobenzofuran-5-yl)ethynyl)pyridine-3-sulfonamide]
IC50 [1]: > 5000 nM | Metabolic stability (mouse), residual rate of the unchanged form [2]: 85% | Membrane permeation rate [3]: A (value of higher than 10×10^−8 cm/sec) | IC50 [4]: ≤ 1 nM | ETA selectivity (ETB/ETA) [4]: ++ (ETB IC50 value/ETA IC50 value of higher than 5000)

Cc1cc2c(cc1C#Cc1ncccc1S(=O)(=O)Nc1noc(C)c1Cl)C(C)(C)OC2 [Example 7, N-(4-Chloro-5-methylisoxazol-3-yl)-2-((3,3,6-trimethyl-1,3-dihydroisobenzofuran-5-yl)ethynyl)pyridine-3-sulfonamide]
inhibition at 5 µM ([1]; at 5000 nM, read-out: ETB receptor inhibitory effect, % inhibition): 57% | Metabolic stability (mouse), residual rate of the unchanged form [2]: 81% | Membrane permeation rate [3]: A (value of higher than 10×10^−8 cm/sec) | IC50 [4]: ≤ 1 nM

Cc1onc(NS(=O)(=O)c2cccnc2C#Cc2ccc3c(c2)COC3)c1C [Example 5, 2-((1,3-Dihydroisobenzofuran-5-yl)ethynyl)-N-(4,5-dimethylisoxazol-3-yl)pyridine-3-sulfonamide]
IC50 [1]: > 5000 nM | Metabolic stability (mouse), residual rate of the unchanged form [2]: 90% | Membrane permeation rate [3]: B (value in the range of higher than 1×10^−8 cm/sec and 10×10^−8 cm/sec or lower) | IC50 [4]: 1 to 10 nM

Cc1cc2c(cc1C#Cc1ncccc1S(=O)(=O)Nc1noc(C)c1C)C(C)(C)OC2 [Example 1, N-(4,5-Dimethylisoxazol-3-yl)-2-((3,3,6-trimethyl-1,3-dihydroisobenzofuran-5-yl)ethynyl)pyridine-3-sulfonamide]
IC50 [1]: > 5000 nM | Metabolic stability (mouse), residual rate of the unchanged form [2]: 85% | Membrane permeation rate [3]: A (value of higher than 10×10^−8 cm/sec) | IC50 [4]: ≤ 1 nM | ETA selectivity (ETB/ETA) [4]: ++ (ETB IC50 value/ETA IC50 value of higher than 5000)
